In paper PMC10374545, “A small molecule inhibitor of PTP1B and PTPN2 enhances T cell anti-tumor immunity” (Nature Communications, 2023):
Values joined by “and” are separate entries in the source; they are usually repeats but may differ in a detail not shown here. Equal entries are not always repeated.

Columns and labels:
[1] = Serum liver enzymes AST and ALT; type: in vivo, mouse; parameters: Serum ALT: unit not given here
From the text: CD3ε (BD Biosciences Cat# 553058) and CD28 (BD Biosciences Cat# 557393) antibodies for T cell stimulation and NK1.1 (BD Biosciences Cat# 564143) antibody for NK cell stimulation were purchased from BD Biosciences. Ly49H (clone 3D10, BioLegend Cat# 144702) antibody for NK stimulation was from BioLegend. For analyzing T cell signaling, p-(Y418) SFK (Thermo Fisher Scientific Cat# 14-9034-82) was from Invitrogen and p-(Y694) STAT-5 (D47E7) XP® (Cell Signaling Technology Cat# 4322) was from Cell Signaling. Recombinant human IL-2, recombinant murine IL-7 and recombinant human IL-15 were purchased from the PeproTech, recombinant mouse IL-12 and recombinant human IL-18 were from Australia Biosearch and […] (N4) from Mimotopes. InVivoMAb anti-mouse PD-1 (Bio X Cell Cat# BE0146) and InVivoMAb rat IgG2a isotype control (Bio X Cell Cat# BE0251) were purchased from Bio X Cell. DNase I was from Sigma-Aldrich. Rabbit monoclonal PTP1B (Abcam Cat# ab244207) antibody for flow cytometry was from Abcam and mouse monoclonal PTPN2 6F3 antibody for immunoblotting and flow cytometry was from MédiMabs (Cat# MM-019-P). Mouse anti-actin (Thermo Fisher Scientific Cat# MA5-11866) from Invitrogen and mouse α-tubulin (Sigma-Aldrich Cat# T5168) was from Merck. The mouse anti-nuclear antibodies Ig’s (total IgA+G + M) ELISA Kit was from Alpha Diagnostic Int. and the Transaminase II Kit from Wako Pure Chemicals. FBS was purchased from Thermo Scientific, RPMI 1640, DMEM, MEM, HEPES, non-essential amino acids, penicillin/streptomycin, and sodium-pyruvate were from Invitrogen, collagenase type IV was purchased from Worthington Biochemical and ABBV-CLS-484 was from MedChemExpress (Cat# HY-145923).

MC38 colon tumors = assay: Tumor-infiltrating lymphocytes in MC38 tumors; type: in vivo, mouse; parameters: CD4 EM, individual mice / CD8 EM, individual mice / GRZMB, individual mice / B cells, individual mice / NK cells, individual mice / Tregs, individual mice / MDSCs, individual mice: unit not given here
Experimental: Tumor-bearing mice were sacrificed and tumors were excised and digested at 37 °C for 30 min using a cocktail of 1 mg/ml collagenase type IV (Worthington Biochemicals) and 0.02 mg/ml DNase I (Sigma-Aldrich) in DMEM supplemented with 2% (v/v) FBS. Cells were passed through a 70 μm cell strainer (BD Biosciences) twice and processed for flow cytometry. For assessing T cell activation, cells were surface stained with fluorophore-conjugated antibodies to CD62L, CD44, PD-1, and TIM-3. For the assessment of NK cells, B cells, myeloid-derived suppressor cells (MDSCs), dendritic cells (DCs), and tumor-associated macrophages, cells were surface stained with fluorophore-conjugated antibodies to NK1.1, TCRβ, CD19, CD11b, CD11c, F4/80, Ly6C and Ly6G. For the detection of intracellular cytokines TNF and IFNγ, T cells were stimulated with PMA (20 ng/ml; Sigma-Aldrich) and ionomycin (1 μg/ml; Sigma-Aldrich) in the presence of GolgiPlug™ and GolgiStop™ (BD Biosciences) for 4 h at 37 °C in complete T cell medium. For the intracellular detection of granzyme B, cells were processed untreated without the addition of BD GolgiPlug™ and BD GolgiStop™.

AT3 mammary tumors = assay: AT3 mammary tumor growth in C57BL/6 mice; type: in vivo, mouse
Experimental: Male or female mice were injected subcutaneously with 5 × 10^5 MC38 tumor cells resuspended in 100 μl D-PBS into the flank. Alternatively, female mice were injected orthotopically with 5 × 10^5 AT3 or AT3-OVA or PTPN2-deleted AT3 or AT3-OVA tumor cells resuspended in 20 μl D-PBS into the fourth mammary fat pad. Tumor sizes were measured in two dimensions (mm^2) using electronic callipers two to three times per week as soon as tumors were palpable (20–25 mm^2).

[2] = tested on: SFK Y418 phosphorylation in naive CD8+ T cells; assay: TCR signaling, p-SFK (Y418) by flow cytometry; type: cell-based, mouse; conditions: for p-SFK MFI, single replicates: 10 μM 4 h, Fig. 2D raw data, listed as CMP-182
Experimental: For assessing TCR signaling, single-cell suspensions of naïve (CD44^loCD62L^hi) lymph node CD8^+ T cells (isolated using the EasySep™ Mouse Naïve CD8^+ T cell Isolation Kit, Stemcell Technologies) were washed with ice-cold PBS supplemented with 2% (v/v) FBS and stained with fixable viable dye and fluorophore-conjugated antibodies to CD8 and CD4 on ice for 15 min. […] Cells were then incubated with 5 μg/ml hamster α-mouse CD3ε for 20 min on ice, washed with complete T cell medium supplemented with 1% (v/v) FBS, and then TCR cross-linked with goat α-hamster IgG (20 μg /ml, Sigma) for the indicated times at 37 °C. The reaction was terminated by the addition of paraformaldehyde (BD Cytofix™ Fixation Buffer) to a final concentration of 2% (v/v) on ice for 20 min. Fixed cells were washed in complete T cell medium/1% (v/v) FBS and permeabilised with 90% (v/v) methanol on ice for 30 min. Permeabilised cells were stained with fluorophore-conjugated antibodies to Y418 phosphorylated and activated SFKs (p-SFK; 1:100, Invitrogen) for 1 h at room temperature; p-SFK mean fluorescence intensities in CD8^+ T cells were determined by flow cytometry.

[3] = MC38 tumours, Figure 4B, listed as CMP-182
[4] = MC38 tumours, Figure 4C, listed as CMP-182

In the case of `CC(C)(O)CCOc1ccc2cc(O)c(N3CC(=O)NS3(=O)=O)c(F)c2c1` [Compound 182, 5-(1-Fluoro-3-hydroxy-7-(3-hydroxy-3-methylbutoxy)naphthalen-2-yl)−1,2,5-thiadiazolidin-3-one 1,1-dioxide], the “circulating aspartate aminotransferase (AST)” value ([1]; 10 mg/kg i.v.) is reported as “moderately increased”, the “serum alanine aminotransferase (ALT)” value ([1]; 10 mg/kg i.v.) is reported as “unaffected” and the “Serum ALT” value ([1]; Figure 10C, individual mice, listed as CMP-182) is reported as 680.498 and 1112.03 and 497.925 and 464.73 and 414.938 and 597.51 and 697.095 and 730.29. For the same molecule, the “Serum AST” value ([1]; Figure 10C, individual mice, listed as CMP-182, in U/L (unit assumed)) was 1826.92 and 3480.77 and 2019.23 and 1211.54 and 1250 and 1519.23 and 2346.15 and 4019.23, the “GPT, median” value ([1]; Figure 10C, serum ALT, median, n=8) was 639.0, n=8 and the “GOT, median” value ([1]; Figure 10C, serum AST, median, n=8) was 1923, n=8. The “TILs in MC38 tumors” value (MC38 colon tumors; 10 mg/kg i.v.) was “increased TILs”, the “CD4 EM, individual mice” value (MC38 colon tumors; [3]) was 7887.52 and 30840.7 and 10292.6 and 20601 and 9909.06 and the “CD8 EM, individual mice” value (MC38 colon tumors; [3]) was 15044.4 and 39708.3 and 17222.4 and 39521.3 and 13554.1. For the same molecule, the “GRZMB, individual mice” value (MC38 colon tumors; [3]) was 88.5 and 78.2 and 82.1 and 82.7 and 77.1, the “PD-1 TIM-3, individual mice” value (MC38 colon tumors; [3]) was 71 and 72.3 and 61.5 and 79.9 and 67.1 and the “B cells, individual mice” value (MC38 colon tumors; [4]) was 1614.8 and 2825.59 and 875.433 and 4615.54 and 1539.85. For the same molecule, the “MDSCs, individual mice” value (MC38 colon tumors; [4]) was 35014.8 and 125819 and 42394.5 and 66581.6 and 40317.8, the “NK cells, individual mice” value (MC38 colon tumors; [4]) was 12195.1 and 31635.4 and 14041.5 and 15109.2 and 9658.51 and the “Tregs, individual mice” value (MC38 colon tumors; [4]) was 1910.56 and 8524.67 and 3417.74 and 9313.01 and 2270.7. For the same molecule, the “Tumour weights AT-3, individual mice” value (AT3 mammary tumors; 10 mg, Figure 4D, listed as CMP-182, in mg (unit assumed)) was 433 and 615 and 255 and 610 and 642 and 344, the “Tumour growth AT-3, individual mice” value (AT3 mammary tumors; 10 mg, day 10 post injection, listed as CMP-182, in mm2) was 18.92 and 38.28 and 21.93 and 30.78 and 35.75 and 25.97 and the “Tumour growth AT-3, individual mice” value (AT3 mammary tumors; 10 mg, day 13 post injection, listed as CMP-182, in mm2) was 24.01 and 35.1 and 25.44 and 30.24 and 37.12 and 27.5. The “Tumour growth AT-3, individual mice” value (AT3 mammary tumors; 10 mg, day 16 post injection, listed as CMP-182, in mm2) was 28.5 and 42.21 and 23.76 and 29.58 and 41.04 and 36.4, the “Tumour growth AT-3, individual mice” value (AT3 mammary tumors; 10 mg, day 19 post injection, listed as CMP-182, in mm2) was 40.71 and 52.8 and 61.32 and 46.5 and 44.4 and 42.9 and the “Tumour growth AT-3, individual mice” value (AT3 mammary tumors; 10 mg, day 22 post injection, listed as CMP-182, in mm2) was 40.95 and 59.13 and 71.25 and 50.16 and 54.4 and 49.4. For the same molecule, the “Tumour growth AT-3, individual mice” value (AT3 mammary tumors; 10 mg, day 25 post injection, listed as CMP-182, in mm2) was 70.31 and 63.7 and 89.04 and 67.08 and 73.15 and 57.67, the “Tumour growth AT-3, individual mice” value (AT3 mammary tumors; 10 mg, day 27 post injection, listed as CMP-182, in mm2) was 77.08 and 74.4 and 63 and 65.86 and 98.28 and 55.44 and the “growth of orthotopic AT3 mammary tumors” value (AT3 mammary tumors; 10 mg/kg i.v. every 2 days) was “repressed the growth”. The “Tumour weights, median” value (AT3 mammary tumors; AT-3 tumours, CMP-182 10 mg, n=6, Figure 4D) was 521.5, n=6, the “Tumour size, predicted column mean over all time points” value (AT3 mammary tumors; AT-3 tumours, CMP-182 10 mg, n=6, Figure 4D, in mm2) was 48.13 and the “Tumour size, Mean 2” value (AT3 mammary tumors; AT-3 tumours, CMP-182 10 mg, n=6, time point 10, Figure 4D, in mm2) was 28.61. The “Tumour size, Mean 2” value (AT3 mammary tumors; AT-3 tumours, CMP-182 10 mg, n=6, time point 13, Figure 4D, in mm2) was 29.9, the “Tumour size, Mean 2” value (AT3 mammary tumors; AT-3 tumours, CMP-182 10 mg, n=6, time point 16, Figure 4D, in mm2) was 33.58 and the “Tumour size, Mean 2” value (AT3 mammary tumors; AT-3 tumours, CMP-182 10 mg, n=6, time point 19, Figure 4D, in mm2) was 48.11. The “Tumour size, Mean 2” value (AT3 mammary tumors; AT-3 tumours, CMP-182 10 mg, n=6, time point 22, Figure 4D, in mm2) was 54.22, the “Tumour size, Mean 2” value (AT3 mammary tumors; AT-3 tumours, CMP-182 10 mg, n=6, time point 25, Figure 4D, in mm2) was 70.16 and the “Tumour size, Mean 2” value (AT3 mammary tumors; AT-3 tumours, CMP-182 10 mg, n=6, time point 27, Figure 4D, in mm2) was 72.34. For the same molecule, the “p-SFK MFI, single replicates” value ([2]; TCR cross-linking time 0) was 92.6 and 93.9 and 88, the “p-SFK MFI, single replicates” value ([2]; TCR cross-linking time 2) was 252 (2×) and 216 and the “p-SFK MFI, single replicates” value ([2]; TCR cross-linking time 5) was 211 and 192 and 269. For the same molecule, the “p-SFK MFI, single replicates” value ([2]; TCR cross-linking time 10) was 178 and 172 and 193, the “p-SFK, column mean” value ([2]; 10 uM, mean over all times, two-way ANOVA, Fig. 2D) was 184.1 and the “p-SFK, group mean (Mean 2)” value ([2]; 10 uM, time 0, N 3, Fig. 2D) was 91.5. The “p-SFK, group mean (Mean 2)” value ([2]; 10 uM, time 2, N 3, Fig. 2D) was 240, the “p-SFK, group mean (Mean 2)” value ([2]; 10 uM, time 5, N 3, Fig. 2D) was 224 and the “p-SFK, group mean (Mean 2)” value ([2]; 10 uM, time 10, N 3, Fig. 2D) was 181. For the same molecule, the “TCR-induced SFK Y418 phosphorylation (p-SFK)” value ([2]; α-CD3/IgG crosslinking) was “enhanced”.
